From US8969335B2, “Benzonitrile derivatives as kinase inhibitors” (MERCK PATENT GmbH, priority 2011, dated 2015)

Assays:
[1] = molecular target: TANK binding kinase (TBK1) (Homo sapiens (Human), UniProt Q9UHD2); experiment: TBK1 enzyme assay (384-well flashplate kinase assay); assay type: biochemical; conditions: 0.6 nM TBK1, 10 μM ATP, 30° C., 120 min
IKKε = IKKε (Homo sapiens (Human), UniProt Q14164); experiment: IKKε kinase assay (384-well flashplate assay); assay type: biochemical; conditions: 1 nM IKKε, 10 μM ATP, 30° C., 2 hours; read-out: IKKε enzyme assay IC50
Sequence of IKKε (Q14164 whole entry): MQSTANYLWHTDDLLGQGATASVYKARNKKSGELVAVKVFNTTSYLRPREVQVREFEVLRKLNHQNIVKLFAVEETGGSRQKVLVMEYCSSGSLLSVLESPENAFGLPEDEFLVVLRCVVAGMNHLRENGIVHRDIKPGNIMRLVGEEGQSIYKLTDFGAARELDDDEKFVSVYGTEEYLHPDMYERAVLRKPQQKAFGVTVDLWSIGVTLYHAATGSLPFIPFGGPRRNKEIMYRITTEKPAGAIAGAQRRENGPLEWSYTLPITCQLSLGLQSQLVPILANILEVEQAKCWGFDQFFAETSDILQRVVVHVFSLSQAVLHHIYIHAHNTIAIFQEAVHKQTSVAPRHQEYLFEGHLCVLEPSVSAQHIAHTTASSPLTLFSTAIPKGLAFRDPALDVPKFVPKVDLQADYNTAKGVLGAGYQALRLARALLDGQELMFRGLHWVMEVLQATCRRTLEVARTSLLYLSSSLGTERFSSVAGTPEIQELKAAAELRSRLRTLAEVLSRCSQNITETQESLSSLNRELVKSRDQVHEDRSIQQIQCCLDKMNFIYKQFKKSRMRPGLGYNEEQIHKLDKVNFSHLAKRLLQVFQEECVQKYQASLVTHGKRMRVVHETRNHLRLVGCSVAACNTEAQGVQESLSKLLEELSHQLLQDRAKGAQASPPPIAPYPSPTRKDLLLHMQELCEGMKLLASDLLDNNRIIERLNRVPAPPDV
In short: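 Recombinant IKKε (1 nM) phosphorylates biotinylated IκBα(19-42) peptide (800 nM) with 10 μM ATP spiked with ^33P-ATP, 2 h at 30° C in MOPS buffer pH 7.5. Stopped with EDTA, captured on flashplate, radioactivity counted; nonspecific signal defined with 3 μM BX-795; IC50 derived.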

[2] = system: TBK1 + IKKε (phospho-IRF3 @ Ser 386, MDA-MB-468 cells); experiment: TBK1 + IKKε cell assay: dose response inhibition of phospho-IRF3 @ Ser 386 in MDA-MB-468 cells; assay type: cell-based; conditions: Homo sapiens, poly(I:C) stimulation, nuclear phospho-IRF3, read-out: TBK1 + IKKε cell assay IC50

Sequence of TANK binding kinase (TBK1) (Q9UHD2 whole entry): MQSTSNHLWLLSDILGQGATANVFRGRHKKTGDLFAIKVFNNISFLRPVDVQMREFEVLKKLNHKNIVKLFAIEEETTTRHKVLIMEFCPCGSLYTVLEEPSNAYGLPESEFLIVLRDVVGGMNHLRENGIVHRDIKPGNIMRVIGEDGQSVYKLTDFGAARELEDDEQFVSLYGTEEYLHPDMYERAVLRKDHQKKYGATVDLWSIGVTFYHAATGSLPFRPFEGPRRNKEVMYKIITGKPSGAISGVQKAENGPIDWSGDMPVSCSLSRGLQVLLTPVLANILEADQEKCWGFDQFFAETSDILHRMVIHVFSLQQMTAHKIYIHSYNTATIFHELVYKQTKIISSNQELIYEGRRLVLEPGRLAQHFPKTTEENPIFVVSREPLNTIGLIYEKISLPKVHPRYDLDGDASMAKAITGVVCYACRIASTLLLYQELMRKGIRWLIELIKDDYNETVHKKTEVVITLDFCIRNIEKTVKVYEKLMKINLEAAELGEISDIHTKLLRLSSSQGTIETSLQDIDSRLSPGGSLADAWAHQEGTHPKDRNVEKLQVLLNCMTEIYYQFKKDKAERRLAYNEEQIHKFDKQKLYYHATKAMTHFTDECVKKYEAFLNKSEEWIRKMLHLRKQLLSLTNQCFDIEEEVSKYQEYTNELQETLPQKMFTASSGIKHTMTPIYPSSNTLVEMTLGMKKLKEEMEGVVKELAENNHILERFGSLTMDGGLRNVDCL

Row | IC50 [1] | IC50 (IKKε) | IC50 [2] | SMILES
1 | 6 nM | 8 nM | 320 nM | N#Cc1cc(-c2ccnc(Nc3cnc(CO)cn3)c2)ccc1OC1CCOCC1 [Compound A99, 5-[2-(5-hydroxymethylpyrazin-2-ylamino)pyridin-4-yl]-2-(tetrahydropyran-4-yloxy)benzonitrile]
2 | 3 nM | 5 nM | 440 nM | N#Cc1cc(-c2ccnc(Nc3cnn([C@H]4CC[C@H](O)CC4)c3)n2)ccc1OC1CCOCC1 [Compound A101, 5-{2-[1-(4-hydroxycyclohexyl)-1H-pyrazol-4-ylamino]pyrimidin-4-yl}-2-(tetrahydropyran-4-yloxy)benzonitrile]
3 | 7 nM | 8 nM | 890 nM | COCCn1cc(Nc2nccc(-c3ccc(OCC4CCC4)c(C#N)c3)n2)cn1 [Compound A103, 2-cyclobutylmethoxy-5-{2-[1-(2-methoxyethyl)-1H-pyrazol-4-ylamino]pyrimidin-4-yl}benzonitrile]
4 | 41 nM | 46 nM | 4100 nM | N#Cc1cc(-c2ccnc(Nc3ccc(CO)cn3)c2)ccc1OCC1CC1 [Compound A106, 2-cyclopropylmethoxy-5-[2-(5-hydroxymethylpyridin-2-ylamino)pyridin-4-yl]benzonitrile]
5 | 50 nM | 30 nM | 11000 nM | N#Cc1cc(-c2ccnc(Nc3ccn(C4CCNCC4)n3)c2)ccc1OCC1CC1 [Compound A107, 2-cyclopropylmethoxy-5-[2-(1-piperidin-4-yl-1H-pyrazol-3-ylamino)pyridin-4-yl]benzonitrile]
6 | 23 nM | 45 nM | 1200 nM | N#Cc1cc(-c2ccnc(Nc3ccc(N4CCOCC4)cn3)c2)ccc1OCC1CC1 [Compound A108, 2-cyclopropylmethoxy-5-[2-(5-morpholin-4-ylpyridin-2-ylamino)pyridin-4-yl]benzonitrile]
7 | 54 nM | 120 nM | 2900 nM | N#Cc1cc(-c2ccnc(Nc3ccc(N4CCOCC4)cn3)c2)ccc1OCC1CCC1 [Compound A113, 2-cyclobutylmethoxy-5-[2-(5-morpholin-4-ylpyridin-2-ylamino)pyridin-4-yl]benzonitrile]
8 | 24 nM | 25 nM | 450 nM | N#Cc1cc(-c2ccnc(Nc3ccc(CN4CCOCC4)cn3)c2)ccc1OC1CCOCC1 [Compound A118, 5-[2-(5-morpholin-4-ylmethylpyridin-2-ylamino)pyridin-4-yl]-2-(tetrahydropyran-4-yloxy)benzonitrile]
